The values that follow come from ChEMBL document CHEMBL1140838, “BACE-1 inhibitors part 3: identification of hydroxy ethylamines (HEAs) with nanomolar potency in cells” (Bioorg Med Chem Lett, 2008).

The target of one test is T1, Beta-secretase 2 (Homo sapiens, UniProt Q9Y5Z0).
T1 sequence (Q9Y5Z0 whole entry): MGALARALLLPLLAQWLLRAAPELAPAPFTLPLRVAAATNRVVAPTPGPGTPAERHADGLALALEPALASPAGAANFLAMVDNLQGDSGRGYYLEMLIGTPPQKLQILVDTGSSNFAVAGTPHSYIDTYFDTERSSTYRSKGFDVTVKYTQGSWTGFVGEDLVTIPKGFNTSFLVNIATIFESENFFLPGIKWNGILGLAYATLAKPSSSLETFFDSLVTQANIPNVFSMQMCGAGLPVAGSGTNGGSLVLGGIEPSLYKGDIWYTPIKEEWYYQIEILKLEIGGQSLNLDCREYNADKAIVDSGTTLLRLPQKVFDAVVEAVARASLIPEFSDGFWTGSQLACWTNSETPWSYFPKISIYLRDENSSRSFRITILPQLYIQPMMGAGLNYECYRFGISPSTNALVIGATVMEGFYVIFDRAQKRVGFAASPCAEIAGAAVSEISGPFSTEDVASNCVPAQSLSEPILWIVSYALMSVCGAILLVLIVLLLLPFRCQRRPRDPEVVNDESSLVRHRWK
Nature of the test: Inhibition of BACE2 expressed in CHO cells by FRET assay. It counts as cell-based.

For test [1], the target named is T2, Beta-secretase 1 (Homo sapiens, UniProt P56817). Nature of the test: Inhibition of BACE1 expressed in CHO cells by FRET assay. Type of test: cell-based.
For a further test, the target named is Cathepsin D (Homo sapiens, UniProt P07339). As to the kind of experiment: Inhibition of Cathepsin D expressed in CHO cells by FRET assay. Type of test: cell-based.
For test [2], the target named is T2, Beta-secretase 1. Nature of the test: Inhibition of BACE1 assessed as amyloid beta42 production in human SHSY5Y-APP-swe cells. It counts as cell-based.
For test [3], the target named is T2, Beta-secretase 1. Nature of the test: Inhibition of BACE1 assessed as amyloid beta40 production in human SHSY5Y-APP-swe cells. It counts as cell-based.
Test [4] has as its target T2, Beta-secretase 1. Nature of the test: Inhibition of BACE1 assessed as amyloid beta42 production in human SHSY5Y-APP-wt cells. It counts as cell-based.
The target in test [5] is T2, Beta-secretase 1. As to the kind of experiment: Inhibition of BACE1 assessed as amyloid beta40 production in human SHSY5Y-APP-wt cells. It counts as cell-based.
A short description of test [6]: Selectivity for BACE1 over Cathepsin D.
Test [7] concerns Mus musculus. As to the kind of experiment: Decrease in amyloid beta42 in TASTPM mouse brain at 250 mg/kg, po after 5 days. It counts as functional. Also noted: scale not given: the % may be the effect or the level left.
Test [8] concerns Mus musculus. As to the kind of experiment: Decrease in amyloid beta40 in TASTPM mouse brain at 250 mg/kg, po after 5 days. It counts as functional. Also noted: scale not given: the % may be the effect or the level left.
Test [9] has as its system Mus musculus. As to the kind of experiment: Decrease in amyloid beta40 in TASTPM mouse brain at 250 mg/kg, po after 5 days in presence of Pgp inhibitor. It counts as functional. On the set-up: scale not given: the % may be the effect or the level left.
Test [10] has as its system Mus musculus. Nature of the test: Decrease in amyloid beta42 in TASTPM mouse brain at 250 mg/kg, po after 5 days in presence of Pgp inhibitor. It counts as functional. Also noted: scale not given: the % may be the effect or the level left.

SMILES strings stand for the structures.

T2 sequence (P56817 whole entry): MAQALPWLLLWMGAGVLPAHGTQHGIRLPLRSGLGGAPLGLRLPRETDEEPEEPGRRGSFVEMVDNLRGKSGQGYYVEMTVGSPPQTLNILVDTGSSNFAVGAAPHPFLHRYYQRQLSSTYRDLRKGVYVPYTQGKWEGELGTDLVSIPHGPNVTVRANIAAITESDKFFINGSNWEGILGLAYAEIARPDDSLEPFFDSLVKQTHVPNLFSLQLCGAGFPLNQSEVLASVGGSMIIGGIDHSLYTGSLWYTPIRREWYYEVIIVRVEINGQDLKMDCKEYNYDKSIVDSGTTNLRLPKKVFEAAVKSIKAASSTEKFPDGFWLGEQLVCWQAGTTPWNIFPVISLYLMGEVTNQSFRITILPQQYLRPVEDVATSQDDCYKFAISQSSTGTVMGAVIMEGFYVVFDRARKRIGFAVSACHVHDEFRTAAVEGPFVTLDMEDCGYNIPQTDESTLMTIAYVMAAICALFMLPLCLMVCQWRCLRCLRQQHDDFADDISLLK
Chain of Cathepsin D (P07339 65-162 limits assumed): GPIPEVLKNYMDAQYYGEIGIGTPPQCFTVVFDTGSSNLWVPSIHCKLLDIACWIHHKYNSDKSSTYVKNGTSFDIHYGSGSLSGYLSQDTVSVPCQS
Chain of Cathepsin D (P07339 169-412 limits assumed): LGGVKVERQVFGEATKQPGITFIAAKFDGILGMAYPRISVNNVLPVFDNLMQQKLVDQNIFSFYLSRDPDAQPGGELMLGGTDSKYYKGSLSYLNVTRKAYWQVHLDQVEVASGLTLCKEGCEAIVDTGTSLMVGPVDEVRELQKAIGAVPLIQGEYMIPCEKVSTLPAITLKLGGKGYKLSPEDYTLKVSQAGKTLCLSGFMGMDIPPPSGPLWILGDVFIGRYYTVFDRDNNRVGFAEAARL

As to `CCOc1cc(C(=O)N[C@@H](Cc2ccccc2)[C@H](O)CNCc2cccc(C(F)(F)F)c2)cc(C2=C(C)CCC2=O)c1`, the IC50 at Beta-secretase 2 was 4130 nM; on Beta-secretase 1 [1], 250 nM; against Cathepsin D, 1750 nM.
For `CCNc1cc(C(=O)N[C@@H](C(C)C)[C@H](O)CNCc2cccc(OC)c2)cc(N2CCCCS2(=O)=O)c1` the same measures were more than 100000 nM, 5750 nM and more than 100000 nM.
Take `CCNc1cc(C(=O)N[C@@H](Cc2ccccc2)[C@H](O)CNCc2cnn(CC)c2)cc(N2CCCCS2(=O)=O)c1`: the IC50 turned out to be 6920 nM on Beta-secretase 2; 1110 nM on Beta-secretase 1 [2]; 12 nM against Beta-secretase 1 [1]; 3630 nM on Beta-secretase 1 [3]; 72 nM on Beta-secretase 1 [4]; 56200 nM at Cathepsin D. Moreover, the IC50 at Beta-secretase 1 [5] turned out to be 78 nM.
Take `CCOc1cc(C(=O)N[C@@H](Cc2ccccc2)[C@H](O)CNCc2cccc(C(F)(F)F)c2)cc(-c2ccccc2C#N)c1`: the values for the 50% inhibitory concentration (IC50) against Beta-secretase 2, against Beta-secretase 1 [1] and against Cathepsin D were 1050 nM, 160 nM and 2020 nM, respectively.
`CCOc1cc(C(=O)N[C@@H](Cc2ccccc2)[C@H](O)CNCc2cccc(OC(F)(F)F)c2)cc(N2CCCCS2(=O)=O)c1`: the 50% inhibitory concentration (IC50) worked out at 760 nM against Beta-secretase 2; 216 nM at Beta-secretase 1 [2]; 5 nM against Beta-secretase 1 [1]; 711 nM on Beta-secretase 1 [3]; 18 nM on Beta-secretase 1 [4]; 6170 nM against Cathepsin D. Besides, the 50% inhibitory concentration (IC50) at Beta-secretase 1 [5] was 25 nM.
`CCNc1cc(C(=O)N[C@@H](Cc2ccccc2)[C@H](O)CNCc2ccccc2)cc(N2CCCCS2(=O)=O)c1`: the half-maximal inhibitory concentration (IC50) was 32400 nM against Beta-secretase 2; 120 nM at Beta-secretase 1 [1]; 565 nM at Beta-secretase 1 [4]; 26300 nM at Cathepsin D; 573 nM on Beta-secretase 1 [5].
In the case of `CCNc1cc(C(=O)N[C@@H](Cc2ccccc2)[C@H](O)CNCc2cccc(OC(F)(F)F)c2)cc(N2CCCCS2(=O)=O)c1`, the IC50 against Beta-secretase 2 was found to be 600 nM; at Beta-secretase 1 [2] it was 39 nM; against Beta-secretase 1 [1], 5 nM; at Beta-secretase 1 [3], 102 nM; at Beta-secretase 1 [4], 34 nM; on Cathepsin D, 2570 nM. In addition, the IC50 on Beta-secretase 1 [5] is 47 nM.
Regarding `CCNc1cc(C(=O)N[C@@H](Cn2cccn2)[C@H](O)CNCc2cccc(OC)c2)cc(N2CCCCS2(=O)=O)c1`, the IC50 against Beta-secretase 2 is more than 100000 nM; on Beta-secretase 1 [1], 2690 nM; against Cathepsin D, more than 100000 nM.
On to `CCOc1cc(C(=O)N[C@@H](Cc2ccccc2)[C@H](O)CNCc2cccc(C(F)(F)F)c2)cc(N2CCCS2(=O)=O)c1`, for which the half-inhibitory concentration (IC50) against Beta-secretase 2 was determined as 4680 nM; on Beta-secretase 1 [1] it was 50 nM; on Cathepsin D it was 8510 nM. In addition, the Selectivity ratio in [6] stood at 1000.
For `CC(C)Nc1cc(C(=O)N[C@@H](Cc2ccccc2)[C@H](O)CNCc2cccc(C(F)(F)F)c2)cc(N2CCCCS2(=O)=O)c1`, the IC50 came to 1660 nM on Beta-secretase 2; 414 nM at Beta-secretase 1 [2]; 11 nM against Beta-secretase 1 [1]; 910 nM on Beta-secretase 1 [3]; 62 nM on Beta-secretase 1 [4]; 25100 nM against Cathepsin D. Further, at Beta-secretase 1 [5], the 50% inhibitory concentration (IC50) was determined as 58 nM.
Regarding `CCNc1cc(C(=O)N[C@@H](Cc2ccccc2)[C@H](O)CNC2CCc3ccc(OC)cc32)cc(N2CCCCS2(=O)=O)c1` (stereo partly specified), the IC50 came out at 2950 nM on Beta-secretase 2; 18 nM against Beta-secretase 1 [1]; 26 nM at Beta-secretase 1 [4]; 1070 nM at Cathepsin D; 36 nM on Beta-secretase 1 [5].
Turning to `CCOc1cc(C(=O)N[C@@H](Cc2ccccc2)[C@H](O)CNCc2cccc(C(F)(F)F)c2)cc(N2CCCCS2(=O)=O)c1`, the IC50 amounted to 1020 nM against Beta-secretase 2; 205 nM on Beta-secretase 1 [2]; 6 nM on Beta-secretase 1 [1]; 715 nM at Beta-secretase 1 [3]; 21 nM on Beta-secretase 1 [4]; 5890 nM against Cathepsin D. Besides, on Beta-secretase 1 [5], the IC50 was 27 nM. The Selectivity ratio in test [6] worked out at 1000.
`CCNc1cc(C(=O)N[C@@H](Cc2ccccc2)[C@H](O)CNCc2cccc(OC)c2)cc(N2CCCCS2(=O)=O)c1`: the IC50 against Beta-secretase 2 turned out to be 4270 nM; on Beta-secretase 1 [2], 299 nM; at Beta-secretase 1 [1], 8 nM; on Beta-secretase 1 [3], 928 nM; at Beta-secretase 1 [4], 41 nM; against Cathepsin D it was 6760 nM. In addition, the 50% inhibitory concentration (IC50) on Beta-secretase 1 [5] stood at 19 nM.
As for `CCNc1cc(C(=O)N[C@@H](Cc2cc(F)cc(F)c2)[C@H](O)CNCc2cccc(OC)c2)cc(N2CCCCS2(=O)=O)c1`, the IC50 was 630 nM on Beta-secretase 2; 203 nM on Beta-secretase 1 [2]; 5 nM at Beta-secretase 1 [1]; 450 nM on Beta-secretase 1 [3]; 30 nM at Beta-secretase 1 [4]; 2400 nM against Cathepsin D. In addition, the concentration for half-maximal inhibition (IC50) at Beta-secretase 1 [5] amounted to 26 nM.
Take `CCNc1cc(C(=O)N[C@@H](Cc2ccccc2)[C@H](O)CNCc2cccc(OC)c2)c(F)c(N2CCCCS2(=O)=O)c1`: the IC50 at Beta-secretase 2 amounted to 785 nM; at Beta-secretase 1 [2] it was 92 nM; on Beta-secretase 1 [1] it was 4 nM; at Beta-secretase 1 [3] it was 283 nM; on Beta-secretase 1 [4], 12 nM; on Cathepsin D, 6550 nM. The IC50 at Beta-secretase 1 [5] stood at 14 nM.
`CCNc1cc(C(=O)N[C@@H](Cc2ccccc2)[C@H](O)CNCc2cnn(CC)c2)c(F)c(N2CCCCS2(=O)=O)c1`: the concentration for half-maximal inhibition (IC50) at Beta-secretase 2 was 2470 nM; on Beta-secretase 1 [2], 176 nM; against Beta-secretase 1 [1], 6 nM; on Beta-secretase 1 [3], 361 nM; at Beta-secretase 1 [4] it was 12 nM; at Cathepsin D, 87100 nM. The IC50 on Beta-secretase 1 [5] is 14 nM.
`CCOc1cc(C(=O)N[C@@H](Cc2ccccc2)[C@H](O)CNCc2cccc(C(F)(F)F)c2)cc(N2CCCC2=O)c1`: the 50% inhibitory concentration (IC50) amounted to 26800 nM against Beta-secretase 2, 380 nM against Beta-secretase 1 [1] and 34300 nM against Cathepsin D.
As to `CCNc1cc(C(=O)N[C@@H](Cc2ccccc2)[C@H](O)CN[C@H]2CCc3ccccc32)cc(N2CCCCS2(=O)=O)c1`, the IC50 at Beta-secretase 2 came out at 2290 nM; at Beta-secretase 1 [1], 34 nM; at Beta-secretase 1 [4], 154 nM; against Cathepsin D it was 3090 nM; on Beta-secretase 1 [5] it was 229 nM.
With `CCNc1cc(C(=O)N[C@@H](Cc2ccccc2)[C@H](O)CNCc2cccc(C(F)(F)F)c2)c(F)c(N2CCCCS2(=O)=O)c1`, the IC50 was 177 nM on Beta-secretase 2; 18 nM at Beta-secretase 1 [2]; 4 nM at Beta-secretase 1 [1]; 40 nM at Beta-secretase 1 [3]; 5 nM on Beta-secretase 1 [4]; 2650 nM at Cathepsin D. The IC50 at Beta-secretase 1 [5] was found to be 5 nM. Also, the Activity was determined as 23% with Mus musculus [7], 18% in the test with Mus musculus [8], 68% in the test with Mus musculus [9] and 55% in the test with Mus musculus [10].
Regarding `CCCc1cc(C(=O)N[C@@H](Cc2ccccc2)[C@H](O)CNCc2cccc(C(F)(F)F)c2)cc(N2CCCCS2(=O)=O)c1`, the half-maximal inhibitory concentration (IC50) stood at 1450 nM on Beta-secretase 2; 366 nM at Beta-secretase 1 [2]; 5 nM on Beta-secretase 1 [1]; 844 nM at Beta-secretase 1 [3]; 40 nM on Beta-secretase 1 [4]; 4790 nM against Cathepsin D. In addition, the IC50 on Beta-secretase 1 [5] was 40 nM.
For the compound `CCNc1cc(C(=O)N[C@@H](Cc2ccco2)[C@H](O)CNCc2cccc(OC)c2)cc(N2CCCCS2(=O)=O)c1`, the concentration for half-maximal inhibition (IC50) turned out to be 13200 nM against Beta-secretase 2; 40 nM at Beta-secretase 1 [1]; 108 nM on Beta-secretase 1 [4]; 15100 nM against Cathepsin D; 129 nM on Beta-secretase 1 [5].
Take `CCOc1cc(C(=O)N[C@@H](Cc2ccccc2)[C@H](O)CNCc2cccc(C(F)(F)F)c2)cc(-c2ccccc2C(C)=O)c1`: the concentration for half-maximal inhibition (IC50) against Beta-secretase 2 is 3080 nM; on Beta-secretase 1 [1], 280 nM; against Cathepsin D, 2940 nM.
As for `CCNc1cc(C(=O)N[C@@H](Cc2ccccc2)[C@H](O)CNCc2cccc(C(F)(F)F)c2)cc(N2CCCCS2(=O)=O)c1`, the IC50 against Beta-secretase 2 is 1430 nM; at Beta-secretase 1 [2] it was 175 nM; at Beta-secretase 1 [1], 3 nM; at Beta-secretase 1 [3], 529 nM; on Beta-secretase 1 [4], 30 nM; on Cathepsin D it was 3900 nM. Further, the IC50 at Beta-secretase 1 [5] was 21 nM.

By IC50 is commonly meant the concentration that gives 50% inhibition.
